{"source": "patent US20260234630A1", "about": "“Methods for Treating Multiple Myeloma” (Celgene Corporation, priority 2022, published 2026)", "key": {"Aiolos at UHRF1 promoter": {"tested_on": "Aiolos at UHRF1 promoter", "test": "ChIP-qPCR of Aiolos occupancy at UHRF1 gene", "type": "cell-based", "details": "H929 cells, 1 μM POM, 24 hr", "experimental": "FIG. 2A-2E. UHRF1 expression is positively regulated by Ikaros and Aiolos in IMiDs sensitive MM cells. (2A) Western blot analysis protein expression of UHRF1, Ikaros, Aiolos, ZFP91 and Cereblon expression in control [shLuciferase (shLuc)] and cereblon knockdown (shCRBN) H929 cells treated with DMSO and 1 μM POM for 3 days. GAPDH, loading control. Arrow head, UHRF1. (2B) qRT-PCR analysis of UHRF1 gene expression levels in cells as in (2A). Data was normalized to ACTB. Error bars represent the SEM of technical duplicates. *** P<0.001 (Two-tailed unpaired Student's t-test). […]\nChIP-qPCR was performed using ChIP-IT Express Enzymatic kit (Active Motif) according to the manufacture manual with some modifications. […] DNA was purified using a PCR purification kit (Qiagen) and analyzed by qPCR using the Power SYBR Green PCR Master Mix.\nProcedures afterward were performed according to the manufacture manual. Eluted DNA was purified using a PCR purification kit (Qiagen) and analyzed by quantitative real-time PCR on the Viia 7 Real Time PCR System using the Power SYBR Green PCR master mix (Applied Biosystems). Statistical differences were calculated using a […] unpaired Student's t-test."}, "Ikaros, Aiolos and ZFP91": {"tested_on": "Ikaros, Aiolos and ZFP91", "test": "Western blot of cereblon substrates in MM cells", "type": "cell-based", "experimental": "FIG. 1A-1F. […] (1A) Volcano plot of protein expression changes determined by mass spectrometry in H929 cells at 24 hr of treatment with CC-220 (0.1 μM) or DMSO control. X axis, Log2fold change (FC); Y axis, significance,-log 10 [p-value]. […] (1B) Volcano plot of gene expression changes determined by Affymetrix microarray in H929 cells treated with POM (1 μM) or DMSO for 24 hr. X axis, Log2fold change (FC); Y axis, significance,-log 10 [p-value], n=2 technical replicates). […] (1C) Western blot analysis protein expression of UHRF1, Ikaros, Aiolos and ZFP91 in H929 cells treated with 1 μM POM for indicated time. (1D) qRT-PCR analysis of UHRF1 gene expression levels in cells as in (1C). Error bars represent the SEM from duplicate measurements. (1E) Western blot analysis protein expression of UHRF1 and indicated proteins in MM cells treated with DMSO (−) or 1 μM POM (+) for 3 days. GAPDH serves as a loading control. (1F) Thymidine incorporation of various MM cell lines treated with indicated dose of POM for 3 days. Error bars represent the SEM from technical replicates.\nFIG. 2A-2E. […] (2A) Western blot analysis protein expression of UHRF1, Ikaros, Aiolos, ZFP91 and Cereblon expression in control [shLuciferase (shLuc)] and cereblon knockdown (shCRBN) H929 cells treated with DMSO and 1 μM POM for 3 days. GAPDH, loading control. Arrow head, UHRF1. (2B) qRT-PCR analysis of UHRF1 gene expression levels in cells as in (2A). Data was normalized to ACTB. Error bars represent the SEM of technical duplicates. *** P<0.001 (Two-tailed unpaired Student's t-test). (2C) Western blot analysis protein expression of UHRF1, Ikaros and Aiolos in stably transduced H929 cells after Dox induction (0, 10, 50 or 100 ng/ml) for 3 days of non-target shRNA (shNT) or shRNAs targeting Ikaros (shIKZF1) or Aiolos (shIKZF3). (2D) qRT-PCR analysis of UHRF1 gene expression levels in cells as in (2C). Shown are cells induced with Dox (50 ng/ml) for 3 days. Data was normalized to GAPDH. Error bars represent the SEM of technical duplicates. *P<0.05, ** P<0.01, *** P<0.001, **** P<0.0001 (Two-tailed unpaired Student's t-test). […] ChIP with control rabbit IgG (IgG) serves as a negative control. Error bars represent the SEM of technical triplicates. * P<0.05, ** P<0.01, **** P<0.0001 (Two-tailed unpaired Student's t-test).\nCells were lysed with cell lysis buffer (50 mM TrisHCl pH7.4, 250 mM NaCl, 0.5% Triton X100, 10% glycerol) supplemented with protease inhibitor cocktail. Cell lysates were subjected to sonication to breakdown nuclei and reduce viscosity caused by released genomic DNA. The protein concentration was measured by a Bradford Protein Assay (Bio-Rad). […] Proteins of interested were detected incubation with primary antibodies listed below at 4° C. overnight. […]"}}}
{"smiles": "Nc1cccc2c1C(=O)N(C1CCC(=O)NC1=O)C2=O", "note": "(centres unmarked) [POM, pomalidomide]", "values": [{"measurement": "UHRF1 promoter occupancy of Aiolos", "setting": "Aiolos at UHRF1 promoter", "value": "drastically reduced"}, {"measurement": "time to degradation of Ikaros, Aiolos and ZFP91 proteins", "setting": "Ikaros, Aiolos and ZFP91; H929 cells, POM 1 μM, time course", "value": "≤ 3", "unit": "h"}, {"measurement": "cereblon substrates (Ikaros, Aiolos, ZFP91) protein", "setting": "Ikaros, Aiolos and ZFP91; MC/CAR and RPMI 8226 cells, 1 μM POM, 3 days", "value": "degraded"}, {"measurement": "Ikaros, Aiolos and ZFP91 expression level", "setting": "Ikaros, Aiolos and ZFP91; sensitive cell lines H929, MM1.S, DF15 and U266, 1 μM POM, 72 hours", "value": "downregulated"}, {"measurement": "degradation of the substrates by POM under cereblon knockdown", "setting": "Ikaros, Aiolos and ZFP91; shCRBN vs shLuc H929 cells, 1 μM POM, 3 days", "value": "rescued"}]}
